Source: ChEMBL document CHEMBL1201862, “PubChem BioAssay data set” (2004)
Blank lines part the entries; values can stand above or below the compound they belong to. Activity calls are given as the source filed them.

How the values were obtained:
[1] = target: Calcium/calmodulin-dependent protein kinase type II subunit gamma (Homo sapiens, UniProt Q13555); type: functional
[2] = target: Casein kinase II subunit alpha (Homo sapiens, UniProt P68400); type: functional
[3] = target: MAP/microtubule affinity-regulating kinase 4 (Homo sapiens, UniProt Q96L34); test: Navigating the Kinome. Panel member name: MARK4; type: functional
[4] = target: Serine/threonine-protein kinase pim-3 (Homo sapiens, UniProt Q86V86); type: functional;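 also: value obtained as one member of a broad kinase panel profiling effort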
Focal adhesion kinase 1 = Focal adhesion kinase 1 (Homo sapiens, UniProt Q05397); type: functional;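 also: measured as one member of a kinome panel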
[5] = target: Megakaryocyte-associated tyrosine-protein kinase (Homo sapiens, UniProt P42679); type: functional;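 also: affinity measured as one member of a kinase panel (Navigating the Kinome) against MATK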
[6] = target: Cyclin-dependent kinase 5 (Homo sapiens, UniProt Q00535); type: functional;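 also: CDK5 measured as one member of a kinase profiling panel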
[7] = target: Cyclin-dependent kinase 19 (Homo sapiens, UniProt Q9BWU1); test: Navigating the Kinome. Panel member name: CDC2L6; type: functional
[8] = target: Tyrosine-protein kinase Srms (Homo sapiens, UniProt Q9H3Y6); type: functional;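 also: SRMS measured as one member of a kinome-wide kinase profiling panel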
[9] = target: MAP kinase-activated protein kinase 5 (Homo sapiens, UniProt Q8IW41); type: functional;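 also: measured as one member of a kinome panel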
[10] = target: Phosphorylase b kinase gamma catalytic chain, liver/testis isoform (Homo sapiens, UniProt P15735); type: functional;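 also: PHKG2 measured as one member of a kinome-wide kinase panel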
[11] = target: Protein kinase C gamma type (Homo sapiens, UniProt P05129); type: functional
[12] = target: Glycogen synthase kinase-3 beta (Homo sapiens, UniProt P49841); type: functional;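 also: value comes from a broad kinome profiling panel, with GSK3B as the panel member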
[13] = target: Ribosomal protein S6 kinase alpha-5 (Homo sapiens, UniProt O75582); type: functional
[14] = target: Serine/threonine-protein kinase Chk1 (Homo sapiens, UniProt O14757); type: functional;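 also: measured as one member of a kinome-wide kinase profiling panel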
[15] = target: Dual specificity mitogen-activated protein kinase kinase 2 (Homo sapiens, UniProt P36507); test: Navigating the Kinome. Panel member name: MAP2K2; type: functional
[16] = target: Tyrosine-protein kinase SYK (Homo sapiens, UniProt P43405); type: functional
Aurora kinase A = target: T1, Aurora kinase A (Homo sapiens, UniProt O14965); type: functional;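 also: value from the Navigating the Kinome kinase panel profiling, panel entry STK6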
T1 sequence (O14965 whole entry): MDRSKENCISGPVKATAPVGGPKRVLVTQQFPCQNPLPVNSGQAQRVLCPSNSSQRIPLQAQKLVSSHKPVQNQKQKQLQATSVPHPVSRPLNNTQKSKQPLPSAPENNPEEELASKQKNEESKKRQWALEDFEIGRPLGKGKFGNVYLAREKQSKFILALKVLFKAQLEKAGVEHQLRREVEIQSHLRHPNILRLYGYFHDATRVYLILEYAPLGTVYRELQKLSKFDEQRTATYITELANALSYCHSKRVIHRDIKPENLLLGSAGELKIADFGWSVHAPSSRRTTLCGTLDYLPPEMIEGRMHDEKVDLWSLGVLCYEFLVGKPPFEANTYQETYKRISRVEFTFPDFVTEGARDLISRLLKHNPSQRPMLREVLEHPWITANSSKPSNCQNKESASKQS

[17] = target: Cyclin-dependent kinase 1 (Homo sapiens, UniProt P06493); type: functional;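 also: Kinome-wide panel profiling, with the target listed as panel member CDC2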
[18] = target: Fibroblast growth factor receptor 3 (Homo sapiens, UniProt P22607); type: functional
[19] = target: Tyrosine-protein kinase ABL1 (Homo sapiens, UniProt P00519); type: functional
[20] = target: Dual specificity mitogen-activated protein kinase kinase 1 (Homo sapiens, UniProt Q02750); test: Navigating the Kinome. Panel member name: MAP2K1; type: functional
[21] = target: MAP/microtubule affinity-regulating kinase 3 (Homo sapiens, UniProt P27448); type: functional;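 also: MARK3 affinity measured as one member of a kinome panel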
[22] = target: Maternal embryonic leucine zipper kinase (Homo sapiens, UniProt Q14680); type: functional
[23] = target: High affinity nerve growth factor receptor (Homo sapiens, UniProt P04629); type: functional;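 also: NTRK1 tested as one member of a kinome-wide profiling panel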
LIM domain kinase 1 = LIM domain kinase 1 (Homo sapiens, UniProt P53667); test: Navigating the Kinome. Panel member name: LIMK1; type: functional
Activated CDC42 kinase 1 = Activated CDC42 kinase 1 (Homo sapiens, UniProt Q07912); test: Navigating the Kinome. Panel member name: ACK1; type: functional
[24] = target: Serine/threonine-protein kinase 3 (Homo sapiens, UniProt Q13188); type: functional;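 also: measured as one member of a kinome-wide kinase panel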
[25] = target: Tyrosine-protein kinase JAK2 (Homo sapiens, UniProt O60674); type: functional;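 also: JAK2 tested as one member of a kinase panel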
[26] = target: Receptor tyrosine-protein kinase erbB-2 (Homo sapiens, UniProt P04626); test: Navigating the Kinome. Panel member name: ERBB2; type: functional
[27] = target: Serine/threonine-protein kinase BRSK1 (Homo sapiens, UniProt Q8TDC3); type: functional;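 also: measured within a kinome-wide kinase panel, with the target listed as KIAA1811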
[28] = target: T2, Serine/threonine-protein phosphatase (Candida dubliniensis (strain CD36 / CBS 7987 / NCPF 3949 / NRRLY-17841) (Yeast), UniProt B9W6M3); test: blockers of CaCl2-induced CDRE-lacZ signaling – S. cerevisiae, luminescence, secondary, dose response (AID 2388); type: functional, cell-based;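 also: yeast reporter cells carrying a calcineurin-responsive lacZ construct stimulated with calcium chloride; luminescent beta-galactosidase reporter signal in whole cells rather than isolated phosphatase activity; potency for inhibition where a drop in reporter signal means calcineurin blockade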
T2 sequence (B9W6M3 whole entry): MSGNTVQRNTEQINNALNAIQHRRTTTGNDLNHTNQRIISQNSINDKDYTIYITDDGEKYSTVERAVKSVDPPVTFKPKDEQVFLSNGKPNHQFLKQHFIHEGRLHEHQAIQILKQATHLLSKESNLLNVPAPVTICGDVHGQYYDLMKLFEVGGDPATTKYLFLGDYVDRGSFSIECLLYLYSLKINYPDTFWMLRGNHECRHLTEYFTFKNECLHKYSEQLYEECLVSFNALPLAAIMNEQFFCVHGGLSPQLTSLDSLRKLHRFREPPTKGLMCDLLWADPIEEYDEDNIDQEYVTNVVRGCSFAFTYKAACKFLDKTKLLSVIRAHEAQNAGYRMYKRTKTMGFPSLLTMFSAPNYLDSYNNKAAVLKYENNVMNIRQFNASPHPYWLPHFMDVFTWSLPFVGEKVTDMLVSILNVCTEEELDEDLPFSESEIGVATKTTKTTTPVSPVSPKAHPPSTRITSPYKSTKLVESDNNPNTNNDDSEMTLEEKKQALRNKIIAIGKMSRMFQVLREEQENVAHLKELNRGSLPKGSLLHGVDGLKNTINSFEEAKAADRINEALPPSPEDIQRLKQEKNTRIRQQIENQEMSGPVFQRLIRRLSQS

Cyclin-dependent kinase 5, sequence (Q00535 whole entry): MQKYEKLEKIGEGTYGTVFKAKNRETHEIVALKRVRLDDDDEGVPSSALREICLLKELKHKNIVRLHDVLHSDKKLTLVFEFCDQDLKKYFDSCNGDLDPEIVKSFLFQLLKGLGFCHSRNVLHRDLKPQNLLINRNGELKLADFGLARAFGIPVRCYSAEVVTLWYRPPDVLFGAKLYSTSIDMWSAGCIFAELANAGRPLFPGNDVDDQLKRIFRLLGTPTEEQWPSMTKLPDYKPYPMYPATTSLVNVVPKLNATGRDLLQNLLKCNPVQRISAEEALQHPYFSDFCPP
LIM domain kinase 1, sequence (P53667 whole entry, the tested form may be a part): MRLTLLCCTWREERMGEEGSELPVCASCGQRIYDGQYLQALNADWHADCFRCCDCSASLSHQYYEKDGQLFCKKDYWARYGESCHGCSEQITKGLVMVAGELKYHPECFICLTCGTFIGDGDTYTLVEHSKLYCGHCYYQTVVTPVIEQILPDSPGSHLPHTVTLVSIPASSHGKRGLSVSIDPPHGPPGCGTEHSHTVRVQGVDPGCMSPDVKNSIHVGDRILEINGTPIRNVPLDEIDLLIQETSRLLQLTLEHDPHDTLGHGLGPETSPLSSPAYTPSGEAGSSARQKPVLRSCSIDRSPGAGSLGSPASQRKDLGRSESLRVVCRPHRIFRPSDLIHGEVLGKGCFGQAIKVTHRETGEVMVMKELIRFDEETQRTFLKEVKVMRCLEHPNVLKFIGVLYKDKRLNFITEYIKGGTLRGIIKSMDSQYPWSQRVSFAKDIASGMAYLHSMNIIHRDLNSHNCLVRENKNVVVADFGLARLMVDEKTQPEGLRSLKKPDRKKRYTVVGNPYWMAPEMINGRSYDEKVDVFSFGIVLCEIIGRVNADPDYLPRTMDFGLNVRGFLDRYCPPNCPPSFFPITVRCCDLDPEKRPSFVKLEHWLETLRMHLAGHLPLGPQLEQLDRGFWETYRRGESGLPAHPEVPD
Serine/threonine-protein kinase Chk1, sequence (O14757 whole entry): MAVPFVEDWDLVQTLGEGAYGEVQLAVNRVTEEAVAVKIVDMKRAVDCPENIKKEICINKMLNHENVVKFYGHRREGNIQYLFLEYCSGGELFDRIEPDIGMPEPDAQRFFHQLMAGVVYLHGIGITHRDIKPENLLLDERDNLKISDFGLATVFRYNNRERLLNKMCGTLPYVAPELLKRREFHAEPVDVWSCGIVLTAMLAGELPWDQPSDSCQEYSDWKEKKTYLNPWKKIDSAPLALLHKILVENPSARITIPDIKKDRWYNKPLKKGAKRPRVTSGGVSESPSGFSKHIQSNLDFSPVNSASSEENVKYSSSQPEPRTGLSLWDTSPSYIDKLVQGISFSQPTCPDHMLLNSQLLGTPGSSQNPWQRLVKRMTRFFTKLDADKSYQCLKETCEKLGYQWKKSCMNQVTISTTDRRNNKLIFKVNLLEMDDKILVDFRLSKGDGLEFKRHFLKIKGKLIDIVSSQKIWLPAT
Activated CDC42 kinase 1, sequence (Q07912 whole entry): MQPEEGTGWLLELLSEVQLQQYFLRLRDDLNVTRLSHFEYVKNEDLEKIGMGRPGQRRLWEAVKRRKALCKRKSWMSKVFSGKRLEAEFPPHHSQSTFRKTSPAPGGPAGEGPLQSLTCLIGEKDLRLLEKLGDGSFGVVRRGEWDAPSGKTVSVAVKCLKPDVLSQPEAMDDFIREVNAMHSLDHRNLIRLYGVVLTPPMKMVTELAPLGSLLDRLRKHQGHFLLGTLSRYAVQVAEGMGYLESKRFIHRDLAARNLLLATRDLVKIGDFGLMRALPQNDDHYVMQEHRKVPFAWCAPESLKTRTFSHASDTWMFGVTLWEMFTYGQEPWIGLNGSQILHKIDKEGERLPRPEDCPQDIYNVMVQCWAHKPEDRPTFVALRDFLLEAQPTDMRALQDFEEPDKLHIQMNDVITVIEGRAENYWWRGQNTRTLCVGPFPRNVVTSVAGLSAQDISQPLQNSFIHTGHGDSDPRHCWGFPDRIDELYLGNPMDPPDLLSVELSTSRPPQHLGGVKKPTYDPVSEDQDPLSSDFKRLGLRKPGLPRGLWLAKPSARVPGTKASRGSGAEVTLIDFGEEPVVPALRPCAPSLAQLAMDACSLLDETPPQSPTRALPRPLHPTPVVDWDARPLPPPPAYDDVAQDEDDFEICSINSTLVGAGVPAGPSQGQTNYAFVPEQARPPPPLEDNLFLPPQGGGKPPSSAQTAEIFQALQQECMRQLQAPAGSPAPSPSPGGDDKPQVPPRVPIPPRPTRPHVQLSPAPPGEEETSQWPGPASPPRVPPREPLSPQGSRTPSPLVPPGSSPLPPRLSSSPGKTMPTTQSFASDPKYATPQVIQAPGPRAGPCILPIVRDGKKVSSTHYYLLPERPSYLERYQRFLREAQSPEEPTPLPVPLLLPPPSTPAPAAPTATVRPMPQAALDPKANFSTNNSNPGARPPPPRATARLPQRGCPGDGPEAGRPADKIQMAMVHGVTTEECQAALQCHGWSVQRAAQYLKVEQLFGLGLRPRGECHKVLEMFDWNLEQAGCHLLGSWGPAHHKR
Maternal embryonic leucine zipper kinase, sequence (Q14680 whole entry): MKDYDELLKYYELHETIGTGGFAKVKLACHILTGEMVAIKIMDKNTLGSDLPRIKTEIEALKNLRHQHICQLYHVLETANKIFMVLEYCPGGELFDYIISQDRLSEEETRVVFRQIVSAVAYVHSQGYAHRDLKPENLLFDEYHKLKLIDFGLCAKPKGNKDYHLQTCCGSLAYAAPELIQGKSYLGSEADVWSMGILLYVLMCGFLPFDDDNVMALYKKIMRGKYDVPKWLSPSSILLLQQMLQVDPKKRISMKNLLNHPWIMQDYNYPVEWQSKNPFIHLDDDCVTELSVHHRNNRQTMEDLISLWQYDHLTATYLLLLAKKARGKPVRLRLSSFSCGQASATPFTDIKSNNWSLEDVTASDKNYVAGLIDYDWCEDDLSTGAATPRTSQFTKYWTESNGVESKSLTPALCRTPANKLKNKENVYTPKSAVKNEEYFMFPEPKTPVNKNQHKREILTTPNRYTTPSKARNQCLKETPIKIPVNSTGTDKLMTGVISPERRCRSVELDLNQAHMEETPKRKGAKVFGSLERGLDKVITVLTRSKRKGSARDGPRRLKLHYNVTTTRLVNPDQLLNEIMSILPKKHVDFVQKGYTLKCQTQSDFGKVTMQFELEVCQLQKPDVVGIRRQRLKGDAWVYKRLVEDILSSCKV
Serine/threonine-protein kinase BRSK1, sequence (Q8TDC3 whole entry): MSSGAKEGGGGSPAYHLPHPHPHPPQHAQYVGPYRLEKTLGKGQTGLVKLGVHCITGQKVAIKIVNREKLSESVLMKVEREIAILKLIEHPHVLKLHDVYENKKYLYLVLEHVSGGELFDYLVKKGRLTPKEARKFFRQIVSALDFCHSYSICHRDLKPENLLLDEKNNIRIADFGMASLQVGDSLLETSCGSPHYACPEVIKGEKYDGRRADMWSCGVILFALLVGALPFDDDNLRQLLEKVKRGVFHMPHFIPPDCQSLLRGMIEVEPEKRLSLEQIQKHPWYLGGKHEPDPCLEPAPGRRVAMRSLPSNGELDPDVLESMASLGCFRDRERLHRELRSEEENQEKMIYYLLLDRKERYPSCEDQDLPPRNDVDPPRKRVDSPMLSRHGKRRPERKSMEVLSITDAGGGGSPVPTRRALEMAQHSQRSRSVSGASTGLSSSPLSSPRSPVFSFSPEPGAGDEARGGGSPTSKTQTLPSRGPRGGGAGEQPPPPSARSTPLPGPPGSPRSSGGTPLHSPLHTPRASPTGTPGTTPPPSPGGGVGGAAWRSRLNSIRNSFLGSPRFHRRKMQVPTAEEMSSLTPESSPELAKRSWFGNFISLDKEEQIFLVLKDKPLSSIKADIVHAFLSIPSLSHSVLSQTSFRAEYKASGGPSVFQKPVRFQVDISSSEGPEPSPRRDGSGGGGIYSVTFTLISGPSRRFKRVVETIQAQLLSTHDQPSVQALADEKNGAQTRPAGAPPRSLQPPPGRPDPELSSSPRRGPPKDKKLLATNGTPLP
Dual specificity mitogen-activated protein kinase kinase 2, sequence (P36507 whole entry): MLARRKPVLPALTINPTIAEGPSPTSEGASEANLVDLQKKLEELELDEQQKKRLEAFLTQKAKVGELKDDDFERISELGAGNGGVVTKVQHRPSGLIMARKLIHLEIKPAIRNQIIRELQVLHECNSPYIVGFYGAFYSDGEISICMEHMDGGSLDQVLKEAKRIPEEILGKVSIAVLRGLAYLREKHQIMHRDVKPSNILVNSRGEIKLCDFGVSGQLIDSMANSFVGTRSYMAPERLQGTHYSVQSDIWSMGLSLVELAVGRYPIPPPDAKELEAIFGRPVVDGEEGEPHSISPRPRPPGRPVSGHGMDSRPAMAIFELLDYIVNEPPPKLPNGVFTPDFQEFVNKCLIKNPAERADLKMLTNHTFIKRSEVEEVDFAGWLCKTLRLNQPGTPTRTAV

- Ki [1]: 501 nM (active)
- Ki [2]: 100 nM (active)
- Ki [3]: 7.94 nM (active)
- Ki [4]: 31.6 nM (active)
- Ki (Focal adhesion kinase 1): > 5.01 µM (inactive)
- Ki [5]: > 2 µM (inactive)
- Ki [6]: 1.58 µM (active)
- Ki [7]: 398 nM (active)
- Ki [8]: > 1.58 µM (inactive)
- Ki [9]: 200 nM (active)
- Ki [10]: 126 nM (active)
- Ki [11]: 200 nM (active)
- Ki [12]: 316 nM (active)
- Ki [13]: 631 nM (active)
- Ki [14]: 1.26 µM (active)
- Ki [15]: > 3.98 µM (inactive)
- Ki [16]: 100 nM (active)
- Ki (Aurora kinase A): > 1.58 µM (inactive)
- Ki [17]: 31.6 nM (active)
- Ki [18]: > 2 µM (inactive)
- Ki [19]: > 2.51 µM (inactive)
- Ki [20]: > 3.16 µM (inactive)
- Ki [21]: 63.1 nM (active)
- Ki [22]: 251 nM (active)
- Ki [23]: > 2.51 µM (inactive)
- Ki (LIM domain kinase 1): 1.26 µM (active)
- Ki (Activated CDC42 kinase 1): > 3.98 µM (inactive)
- Ki [24]: 501 nM (active)
- Ki [25]: > 2 µM (inactive)
- Ki [26]: > 1.58 µM (inactive)
- Ki [27]: 79.4 nM (active)
SMILES: NCCCn1cc(-c2cc(-c3cc4ccccc4s3)c3[nH]ncc3c2)c2nc(N)ncc21

SMILES: CCCn1nc([N+](=O)[O-])c(C(C#N)c2nc3ccccc3s2)c(Cl)c1=O (configuration not stated)
- EC50 [28]: > 180 µM (inactive)
